Experimental data taken from patent publication US6211364A, “Process for preparing indane-like compounds” (Eli Lilly and Company, priority 1999, dated 2001).
Read-outs that look alike come from different tables or passages of the source.

Assays:
human m4 receptors = target: T1, human m4 receptors (Homo sapiens, UniProt P08173); experiment: M4 assay: cyclic AMP accumulation/production in pertussis toxin-treated CHO m4 cells (% maximum stimulation compared to oxotremorine-M); format: cell-based; conditions: read-out: % Maximum Stimulation Compared to Oxotremorine-M
T1 construct: expressed in transfected cells; host or cells: CHO K1
Description: II. M4 muscarinic receptor […] assay:
Cyclic AMP Accumulation in Pertussis Toxin-Treated CHO m4 Cells.
CHO K1 cells transfected with human m4 receptors were grown to near confluency in T-150 flasks using Dulbecco's Modified Eagle Medium (DMEM) containing 10% fetal bovine serum. Cells were detached with 0.05% trypsin, 0.53 mM EDTA, and were suspended in medium containing 100 ng/ml pertussis toxin. Cells were plated at 30,000 cells per well into 96 well plates. Eighteen to twenty hours later the medium was removed and the cells were washed with serum-free medium. Attached cells were incubated at 37_C for one hour after addition of […] of serum free DMEM containing 1 mM 3-isobutyl-1-methylxanthine and 1 mM forskolin plus or minus drugs being tested. Incubations were terminated with […] per well of serum free DMEM containing 0.3%, triton-X-100. After stopping incubations the plates were allowed to sit for 20 minutes to extract cAMP and samples were then diluted 2.5-fold and were assayed using the scintillation proximity assay of Amersham (Arlington Heights, Ill.).
Representative results from the M4 assay are as follows:
Stimulation of cyclic AMP Production in CHO-m4 cells.

muscarinic receptor = muscarinic receptor in the CNS, cited from earlier work
[1] = test system: M1 -site muscarinic receptors; conditions: M1 -site versus M2 -sites; cited from earlier work

T1 sequence (P08173 whole entry): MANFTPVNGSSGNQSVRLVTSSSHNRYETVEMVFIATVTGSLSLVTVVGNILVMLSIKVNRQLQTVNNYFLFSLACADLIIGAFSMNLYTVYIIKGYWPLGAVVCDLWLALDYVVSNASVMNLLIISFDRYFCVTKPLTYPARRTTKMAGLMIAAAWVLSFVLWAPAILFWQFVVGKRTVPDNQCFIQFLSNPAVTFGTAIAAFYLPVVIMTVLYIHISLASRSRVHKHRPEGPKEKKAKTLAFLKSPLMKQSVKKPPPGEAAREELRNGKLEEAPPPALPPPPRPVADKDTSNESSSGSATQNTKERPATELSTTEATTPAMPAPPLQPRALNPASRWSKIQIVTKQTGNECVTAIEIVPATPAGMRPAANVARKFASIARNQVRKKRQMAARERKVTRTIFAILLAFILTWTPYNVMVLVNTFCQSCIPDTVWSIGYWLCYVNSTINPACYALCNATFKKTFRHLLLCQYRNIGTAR

| SMILES | Emax (human m4 receptors) | further results |
| --- | --- | --- |
| O=C(N[C@H]1c2cc(N=CN3CCCC3)ccc2C[C@@H]1O)c1cccnc1Cl (relative stereo) [Compound 12] | 26% | – |
| O=C(N[C@H]1c2cc(N=CN3CCCC3)ccc2C[C@@H]1O)c1cccc(F)c1F (relative stereo) [Compound 24] | 22% | – |
| O=C(N[C@@H]1c2cc(N=CN3CCCC3)ccc2C[C@H]1O)C1CCC1 (relative stereo) [Compound 41] | < 20% | – |
| O=C(CSc1ccccc1)N[C@H]1c2cc(N=CN3CCCC3)ccc2C[C@@H]1O (relative stereo) [Compound 28] | < 20% | – |
| O=C(N[C@H]1c2cc(N=CN3CCCC3)ccc2C[C@@H]1O)c1ccccc1C(F)(F)F (relative stereo) [Compound 35] | 65% | – |
| O=C(N[C@H]1c2cc(N=CN3CCCC3)ccc2C[C@@H]1O)C1CCCCC1 (relative stereo) [Compound 11] | 34% | – |
| Cc1cc(C)c(C(=O)N[C@H]2c3cc(N=CN4CCCC4)ccc3C[C@@H]2O)c(C)c1 (relative stereo) [Compound 27] | < 20% | – |
| CCCCc1ccc(C(=O)N[C@@H]2c3cc(N=CN(C)C)ccc3C[C@H]2O)cc1 (relative stereo) [Compound 70] | 18% | – |
| CN(C)C=Nc1ccc2c(c1)C(NS(=O)(=O)c1ccc(Cl)c(Cl)c1)C(O)C2 (stereo not drawn) [Compound 72] | 4% | – |
| CCCc1ccc(C(=O)N[C@H]2c3cc(N=CN4CCCC4)ccc3C[C@@H]2O)cc1 (relative stereo) [Compound 26] | < 20% | – |
| O=C(N[C@H]1c2cc(N=CN3CCCC3)ccc2C[C@@H]1O)c1cccc(F)c1 (relative stereo) [Compound 30] | < 20% | – |
| O=C(N[C@@H]1c2cc(N=CN3CCCC3)ccc2C[C@H]1O)c1c(Cl)cccc1Cl (relative stereo) [Compound 46] | 154% | – |
| CN(C)C=Nc1ccc2c(c1)[C@@H](NC(=O)C(F)(F)F)[C@H](O)C2 (relative stereo) [Compound 66] | 0% | – |
| COc1cc(OC)cc(C(=O)N[C@H]2c3cc(N=CN4CCCC4)ccc3C[C@@H]2O)c1 (relative stereo) [Compound 36] | < 20% | – |
| CN(C)C=Nc1ccc2c(c1)[C@@H](NC(=O)c1cc(Cl)cc(Cl)c1)[C@H](O)C2 (relative stereo) [Compound 58] | 74% | – |
| CN(C)C=Nc1ccc2c(c1)[C@@H](NC(=O)c1cc(F)c(F)c(F)c1)[C@H](O)C2 (relative stereo) [Compound 65] | 30% | – |
| O=C(N[C@H]1c2cc(N=CN3CCCC3)ccc2C[C@@H]1O)c1cc(Cl)cc(Cl)c1 (relative stereo) [Compound 14] | 100% | – |
| O=C(N[C@H]1c2cc(N=CN3CCCC3)ccc2C[C@@H]1O)c1cc(F)cc(F)c1 (relative stereo) [Compound 23] | < 20% | – |
| CC(=Nc1ccc2c(c1)[C@@H](NC(=O)c1ccc(Cl)c(Cl)c1)[C@H](O)C2)N(C)C (relative stereo) [Compound 76] | 130% | – |
| O=C(N[C@@H]1c2cc(N=CN3CCCCC3)ccc2C[C@H]1O)c1cc(Cl)cc(Cl)c1 (relative stereo) [Compound 97] | 36% | – |

| SMILES | Emax (human m4 receptors) | further results |
| --- | --- | --- |
| CN(C)C=Nc1ccc2c(c1)[C@@H](NC(=O)c1cccc3ccccc13)[C@H](O)C2 (relative stereo) [Compound 71] | 95% | – |
| CN(C)C=Nc1ccc2c(c1)[C@@H](NC(=O)c1cccnc1Cl)[C@H](O)C2 (relative stereo) [Compound 73] | 11% | – |
| CN(C)C=Nc1ccc2c(c1)[C@@H](NC(=O)c1ccccc1)[C@H](O)C2 (relative stereo) [Compound 57] | 5% | – |
| CN(C)C=Nc1ccc2c(c1)[C@@H](NC(=O)c1cc(F)cc(C(F)(F)F)c1)[C@H](O)C2 (relative stereo) [Compound 64] | 52% | – |
| O=C(N[C@H]1c2cc(N=CN3CCCC3)ccc2C[C@@H]1O)c1ccc([N+](=O)[O-])cc1Cl (relative stereo) [Compound 20] | 69% | – |
| C[N+](C)(C)CC#CCN1CCCC1=O [3 H-Oxo] | – | Kd (muscarinic receptor; high affinity site, read-out: affinity of 3H-Oxo, first of three labeled sites): 1.8 nM; Kd (muscarinic receptor; medium affinity site, read-out: affinity of 3H-Oxo, second of three labeled sites): 20 nM; Kd (muscarinic receptor; third site, not determined under the present conditions, read-out: affinity of 3H-Oxo, third of three labeled sites): 3000 nM |
| O=C(N[C@H]1c2cc(N=CN3CCCC3)ccc2C[C@@H]1O)c1cc(F)c(F)c(F)c1 (relative stereo) [Compound 39] | 43% | – |
| CN1CCN(CC(=O)N2c3ccccc3C(=O)Nc3cccnc32)CC1 [Pirenzepine, pirenzepine, [N-methyl-^3 H]] | – | selectivity of pirenzepine binding for muscarinic receptor subtype [1]: selective for M1 -sites |
| N#Cc1cccc(C(=O)N[C@H]2c3cc(N=CN4CCCC4)ccc3C[C@@H]2O)c1 (relative stereo) [Compound 38] | < 20% | – |
| O=C(N[C@H]1c2cc(N=CN3CCCC3)ccc2C[C@@H]1O)c1cccc2ccccc12 (relative stereo) [Compound 15] | 76% | – |
| O=C(N[C@@H]1c2cc(N=CN3CCCCC3)ccc2C[C@H]1O)c1cccc(Cl)c1Cl (relative stereo) [Compound 88] | 52% | – |
| O=C(N[C@@H]1c2cc(N=CN3CCCC3)ccc2C[C@H]1O)c1c(Cl)cc(Cl)cc1Cl (relative stereo) [Compound 47] | < 20% | – |
| O=C(N[C@H]1c2cc(N=CN3CCCC3)ccc2C[C@@H]1O)c1ccc2ccccc2c1 (relative stereo) [Compound 17] | 56% | – |
| O=C(N[C@H]1c2cc(N=CN3CCCC3)ccc2C[C@@H]1O)c1cccc([N+](=O)[O-])c1 (relative stereo) [Compound 25] | 43% | – |
| CN(C)C=Nc1ccc2c(c1)[C@@H](NC(=O)c1ccc(C(F)(F)F)cc1)[C@H](O)C2 (relative stereo) [Compound 75] | 6% | – |
| COc1cccc(C(=O)N[C@H]2c3cc(N=CN4CCCC4)ccc3C[C@@H]2O)c1 (relative stereo) [Compound 34] | 45% | – |
| O=C(N[C@@H]1c2cc(N=CN3CCCCC3)ccc2C[C@H]1O)c1cc(F)cc(F)c1 (relative stereo) [Compound 98] | 73% | – |
| CCc1ccc(C(=O)N[C@@H]2c3cc(N=CN(C)C)ccc3C[C@H]2O)cc1 (relative stereo) [Compound 67] | 7% | – |
| O=C(N[C@H]1c2cc(N=CN3CCCC3)ccc2C[C@@H]1O)c1c(F)ccc(F)c1F (relative stereo) [Compound 29] | < 20% | – |
| CN(C)C=Nc1ccc2c(c1)[C@@H](NC(=O)c1cc3ccccc3s1)[C@H](O)C2 (relative stereo) [Compound 69] | 14% | – |

| SMILES | Emax (human m4 receptors) | further results |
| --- | --- | --- |
| O=C(N[C@H]1c2cc(N=CN3CCCC3)ccc2C[C@@H]1O)c1ccc(F)c(F)c1F (relative stereo) [Compound 33] | 45% | – |
| CN(C)C=Nc1ccc2c(c1)[C@@H](NC(=O)C1CCCC1)[C@H](O)C2 (relative stereo) [Compound 62] | 27% | – |
| CN(C)C=Nc1ccc2c(c1)[C@@H](NC(=O)c1ccc(Cl)nc1)[C@H](O)C2 (relative stereo) [Compound 74] | 8% | – |
| CN(C)C=Nc1ccc2c(c1)[C@@H](NC(=O)c1ccc3ccccc3c1)[C@H](O)C2 (relative stereo) [Compound 63] | 13% | – |
| O=C(N[C@@H]1c2cc(N=CN3CCCC3)ccc2C[C@H]1O)c1cc(F)c(F)c(F)c1F (relative stereo) [Compound 40] | 96% | – |
| CCCCc1ccc(C(=O)N[C@@H]2c3cc(N=CN4CCCC4)ccc3C[C@H]2O)cc1 (relative stereo) [Compound 45] | < 20% | – |
| O=C(N[C@@H]1c2cc(N=CN3CCCCC3)ccc2C[C@H]1O)c1ccc(Cl)c(Cl)c1 (relative stereo) [Compound 77] | 214% | – |
| CN(C)C=Nc1ccc2c(c1)[C@@H](NC(=O)c1sccc1Cl)[C@H](O)C2 (relative stereo) [Compound 68] | 0% | – |
| CCCCOc1ccc(C(=O)N[C@@H]2c3cc(N=CN(C)C)ccc3C[C@H]2O)cc1 (relative stereo) [Compound 59] | 22% | – |
| CN(C)C=Nc1ccc2c(c1)[C@@H](NC(=O)c1cccc(C#N)c1)[C@H](O)C2 (relative stereo) [Compound 61] | 39% | – |
| O=C(N[C@H]1c2cc(N=CN3CCCC3)ccc2C[C@@H]1O)C(F)(F)F (relative stereo) [Compound 19] | < 20% | – |
| N#Cc1ccc(C(=O)N[C@H]2c3cc(N=CN4CCCC4)ccc3C[C@@H]2O)cc1 (relative stereo) [Compound 13] | < 20% | – |
| O=C(N[C@H]1c2cc(N=CN3CCCC3)ccc2C[C@@H]1O)c1cccs1 (relative stereo) [Compound 21] | 23% | – |
| O=C(N[C@H]1c2cc(N=CN3CCCC3)ccc2C[C@@H]1O)c1ccc(C(F)(F)F)cc1 (relative stereo) [Compound 18] | 61% | – |
| O=C(N[C@H]1c2cc(N=CN3CCCC3)ccc2C[C@@H]1O)c1cc(F)ccc1F (relative stereo) [Compound 32] | < 20% | – |
| O=C(N[C@H]1c2cc(N=CN3CCCC3)ccc2C[C@@H]1O)c1cccc(Cl)c1Cl (relative stereo) [Compound 31] | 45% | – |
| O=C(N[C@@H]1c2cc(N=CN3CCCC3)ccc2C[C@H]1O)c1ccccc1Cl (relative stereo) [Compound 44] | 41% | – |
| Cc1cccc(C(=O)N[C@H]2c3cc(N=CN4CCCC4)ccc3C[C@@H]2O)c1 (relative stereo) [Compound 37] | 76% | – |
